Here are results for one molecule from patent US9763451B2, “Method for improved use of the production potential of genetically modified plants” (Bayer Intellectual Property GmbH, priority 2008, dated 2017).

Common to all, as to type: in vivo
For assay [1], the system named is Aphis gossypii. Put plainly: Aphis gossypii test (foliar application) on genetically modified cotton. As to conditions: 20 ppm. The source says:
(§1) A synergistic effect in insecticides and acaricides is always present when the action of the active compound combinations exceeds the total of the actions of the active compounds when applied individually.
(§2) The expected action for a given combination of two active compounds can be calculated as follows, using the formula of S. R. Colby, Weeds 15 (1967), 20-22:
(§3) • X is the kill rate, expressed as % of the untreated control, when employing active compound A at an application rate of m g/ha or in a concentration of m ppm, • Y is the kill rate, expressed as % of the untreated control, when employing the transgenic seed and • E is the kill rate, expressed as % of the untreated control, when employing the active compound A at application rates of m g/ha or in a concentration of m ppm and the transgenic seed, then
(§4) If the actual insecticidal kill rate exceeds the calculated value, the action of the combination is superadditive, i.e. a synergistic effect is present. In this case, the actually observed kill rate must exceed the value calculated using the above formula for the expected kill rate (E).
(§5) Individual potted genetically modified cotton plants with Lepidoptera resistance and Glyphosate resistance are treated with the desired product against the cotton aphid (Aphis gossypii).
(§6) After the desired period of time, the kill in % is determined. 100% means that all the aphids have been killed; 0% means that none of the aphids have been killed.

The subject of assay [2] is Aphis gossypii. Put plainly: Aphis gossypii test (drench application) on genetically modified cotton. As to conditions: 0.8 ppm.
Description: as §1, §2, §3, §4, §5, §6

The subject of a further assay is Spodoptera frugiperda. Put plainly: Spodoptera frugiperda test (foliar application) on genetically modified maize. As to conditions: compound alone, 100 ppm.
Description: as §1, §2, §3, §4
Pots with in each case 5 genetically modified maize plants with Lepidoptera, Coleoptera and/or herbicide resistances are treated in 2 replications against the armyworm (Spodoptera frugiperda).
After the desired period of time, the kill in % is determined. […]

Setting [3] is: combined with cotton plant containing cry gene and Glyphosate resistance gene, expected kill.

Take `CC(c1ccc(C(F)(F)F)nc1)S(C)(=O)=NC#N` (stereo not shown) [compound I-8]: the “Kill in % after 1d, found” value with Aphis gossypii [1] (combined with cotton plant containing cry gene (Lepidoptera resistance) and Glyphosate resistance gene, after 1 d) stood at 85%. In addition, the “Kill in % after 1d, calc. (Colby formula)” value in the assay with Aphis gossypii [1] (setting [3]) is on record as 65%. Further, the “Kill in % after 1d” value in the assay on Aphis gossypii [1] (active compound alone, after 1 d) is 65%. The “Kill in % after 2d, found” value with Aphis gossypii [2] (combined with cotton plant containing cry gene (Lepidoptera resistance) and Glyphosate resistance gene, after 2 d) turned out to be 90%. Also, in the assay with Aphis gossypii [2] (setting [3]), the “Kill in % after 2d, calc. (Colby formula)” value is given as 70%. The “Kill in % after 2d” value in the assay on Aphis gossypii [2] (active compound alone, after 2 d) is on record as 70%. The “Kill in % after 4d” value in the assay on Spodoptera frugiperda is recorded as 0%.
